In paper PMC6411103, “TAK-071, a muscarinic M1 receptor positive allosteric modulator, attenuates scopolamine-induced quantitative electroencephalogram power spectral changes in cynomolgus monkeys” (PLoS ONE, 2019):
Where a name gives a salt, the structure may show the parent alone. Read-outs that look alike come from different tables or passages of the source.

Experiments:
[1] = parameters: method as in PMID 26116126; conditions: direct radiolabeling; cited from earlier work
[2] = parameters: method as in PMID 29563325; conditions: cited from earlier work
[3] = parameters: method as in PMID 30089885; conditions: rats, TAK-071 0.3 mg/kg; cited from earlier work
M1R = tested on: M1R; parameters: method as in PMID 30089885; conditions: previous study; cited from earlier work
rats = tested on: rats; parameters: method as in PMID 30089885; conditions: TAK-071 0.3 mg/kg; cited from earlier work
cynomolgus monkeys [4] = assay: scopolamine-induced qEEG spectral changes (scopolamine challenge paradigm); type: in vivo, cynomolgus monkeys (Macaca fascicularis)
Protocol: (§1) Implant surgery was carried out at Hamri Company Limited (Ibaraki, Japan). Briefly, under isoflurane anesthesia (1–5%, Pfizer Japan Inc., Tokyo, Japan), male cynomolgus monkeys (3–5 years old, Hamri Co., Ltd., Ibaraki, Japan) were surgically implanted with radio-telemetry transmitters (TL10M3-D70-EEE, Data Sciences International Inc., St. Paul, MN). EEG leads were stereotaxically positioned in the parietal area and secured to the cranium with stainless-steel screws in contact with the dura. […] Bilateral electromyography (EMG) leads were implanted in the back cervical muscles. After surgery, each monkey was administered penicillin (100,000 units/animal, i.m., Meiji Seika Pharma Co., Ltd., Tokyo, Japan), buprenorphine (0.02 mg/kg, i.m., Otsuka Pharmaceutical Co., Ltd., Tokyo, Japan), and prednisolone (1 mg/kg, subcutaneously [s.c.], Kyoritsu Seiyaku Co., Ltd., Tokyo, Japan) daily for one week.
(§2) TAK-071, 4-fluoro-2-[(3S,4S)-4-hydroxytetrahydro-2H-pyran-3-yl]-5-methyl-6-[4-(1H-pyrazol-1-yl)benzyl]-2,3-dihydro-1H-isoindol-1-one, was synthesized by Takeda Pharmaceutical Company Limited (Kanagawa, Japan). Donepezil hydrochloride and xanomeline oxalate were purchased from Mega Fine Pharma (P) Limited (Mumbai, India) and Metina AB (Lund, Sweden), respectively. […] TAK-071 and donepezil hydrochloride were suspended in 0.5% (w/v) methylcellulose in distilled water and the volume of administration was 2 mL/kg orally (p.o.). […] The doses of compounds correspond to their salt forms. The administration was scheduled according to a 3×3 cross-over design.
(§3) After at least a 1-month recovery period in their home cages, the monkeys were habituated to the recording chamber (acrylic cage, 60 × 55 × 75 [cm^3 width × depth × height]) located in a soundproof, electrically shielded room. Cortical EEG, EMG, and EOG signals were recorded at a sampling rate of 500 Hz using Dataquest ART software (Data Sciences International, New Brighton, MN). The behavioral and postural changes of the animals were observed using a video camera continuously throughout the experiment. The recordings were performed between 9 a.m. and 4 p.m..
(§4) EEG data were analyzed off-line using SleepSign (KISSEI COMTEC Co., Ltd., Nagano, Japan). Digitized EEG signals were high-pass filtered with a 0.75-Hz filter. Spectral power densities for each frequency band were calculated by fast Fourier transform in consecutive 10-s epochs. Epochs containing abnormal EEG, defined by excessive amplitude (> 500 μV), were omitted from data analysis. For analysis of temporal changes in a specific spectral band (1–4 Hz for delta, 4–8 Hz for theta, 8–12 Hz for alpha, 12–30 Hz for beta, 30–80 Hz for gamma), the EEG power of each spectral band was calculated every 15 min. For each animal, the qEEG spectral analyses were performed from 30 to 240 min after treatment because oral and subcutaneous administration of drugs to monkeys can affect the qEEG power spectra. Data obtained in the post-drug period were normalized with those obtained in the baseline period and were calculated as the area under the curve (AUC) between 30 and 210 min after drug administration for quantitative analyses.

cynomolgus monkeys [5] = assay: qEEG power spectra after treatment with drug alone (radio-telemetry EEG); type: in vivo, cynomolgus monkeys (Macaca fascicularis)
Protocol: as §1, §2, §3, §4

monkeys [6] = conditions: cited from earlier work
freely moving rats = tested on: freely moving rats; parameters: method as in PMID 25181033, PMID 26901596; conditions: cited from earlier work
patients with AD = tested on: patients with AD; parameters: method as in PMID 14626697; conditions: cited from earlier work
healthy young volunteers = tested on: healthy young volunteers; parameters: method as in PMID 1375552; conditions: cited from earlier work
monkeys [7] = tested on: monkeys; parameters: method as in PMID 17657478, PMID 25491927; conditions: scopolamine 20–50 μg/kg; cited from earlier work
healthy subjects = healthy subjects after scopolamine treatment; cited from earlier work
monkeys [8] = conditions: xanomeline 1 mg/kg subcutaneous; cited from earlier work
[9] = TAK-071 3 mg/kg p.o. simultaneously with scopolamine 25 μg/kg s.c., P ≤ 0.05
[10] = donepezil 3 mg/kg p.o. simultaneously with scopolamine 25 μg/kg s.c.
[11] = donepezil alone, 0.3 and 3 mg/kg p.o.
[12] = xanomeline 1 mg/kg s.c. simultaneously with scopolamine 25 μg/kg s.c., not statistically significant

## Cc1cc(F)c2[nH]c(=O)n(C3CCN(C4CCOCC4)CC3)c2c1 [GSK1034702]
[1]
  brain uptake by PET: good brain uptake

## Cc1ccc(Cc2cc3c(=O)n([C@H]4CCCC[C@@H]4O)cnc3c3ccccc23)cn1 [MK-7622]
[2]
  alpha power band: reductions
  theta power band: reductions

## Cc1c(Cc2ccc(-n3cccn3)cc2)cc2c(c1F)CN([C@H]1COCC[C@@H]1O)C2=O [TAK-071, 4-fluoro-2-[(3S,4S)-4-hydroxytetrahydro-2H-pyran-3-yl]-5-methyl-6-[4-(1H-pyrazol-1-yl)benzyl]-2,3-dihydro-1H-isoindol-1-one]
[3]
  maximum plasma concentration: 232 ng/mL
M1R
  selectivity as M1 PAM: highly selective M1 PAM
rats
  scopolamine-induced cognitive deficits: significantly ameliorated
Cynomolgus monkeys [4]; TAK-071 1 mg/kg p.o. simultaneously with scopolamine 25 μg/kg s.c., P ≤ 0.05
  scopolamine-induced increase in alpha power band: significantly reduced
Cynomolgus monkeys [4]; [9]
  scopolamine-induced increase in alpha power band: significantly suppressed
  scopolamine-induced increase in theta power band: significantly suppressed
Cynomolgus monkeys [4]; TAK-071 1 and 3 mg/kg p.o. simultaneously with scopolamine 25 μg/kg s.c., no significant effect
  scopolamine-induced increase in delta power band: a decreasing trend was observed
Cynomolgus monkeys [5]; TAK-071 alone, 1 mg/kg p.o., P ≤ 0.05 vs vehicle
  theta power band of qEEG spectra: significantly decreased
Cynomolgus monkeys [5]; TAK-071 alone, 0.3–3 mg/kg p.o.
  delta power band of qEEG spectra: did not change
Cynomolgus monkeys [5]; TAK-071 alone, 1 and 3 mg/kg p.o., P ≤ 0.05 vs vehicle
  alpha power band of qEEG spectra: significantly decreased

## COc1cc2c(cc1OC)C(=O)C(CC1CCN(Cc3ccccc3)CC1)C2 (centres unmarked) [donepezil, Donepezil hydrochloride]
Monkeys [6]; oral administration of 3 mg/kg donepezil
  scopolamine-induced cognitive deficits: improved
Monkeys [6]; oral donepezil 1–3 mg/kg
  scopolamine-induced cognitive deficits: significantly attenuated
Freely moving rats
  delta power band after treatment with scopolamine: decreased
Cynomolgus monkeys [4]; [10]
  scopolamine-induced increase in alpha power band: tended to be attenuated
  scopolamine-induced increase in theta power band: tended to be attenuated
Cynomolgus monkeys [4]; donepezil 3 mg/kg p.o. simultaneously with scopolamine 25 μg/kg s.c., P ≤ 0.05 vs scopolamine
  scopolamine-induced increase in delta power band: significantly suppressed
Cynomolgus monkeys [5]; donepezil alone, 0.3 mg/kg p.o., dose-dependency not observed
  alpha power band of qEEG spectra: increased
Cynomolgus monkeys [5]; [11]
  delta power band of qEEG spectra: did not affect
  theta power band of qEEG spectra: did not affect
Patients with AD
  alpha activity: increased
  beta activity: increased
  delta activity: significantly decreased

## COc1ccc2c3c1O[C@H]1C[C@@H](O)C=C[C@@]31CCN(C)C2 [galantamine]
Healthy young volunteers
  theta power band: did not change

## CCN(C)C(=O)Oc1cccc([C@H](C)N(C)C)c1 [rivastigmine]
Freely moving rats
  delta power band after treatment with scopolamine: decreased

## CN1[C@@H]2C[C@@H](OC(=O)[C@H](CO)c3ccccc3)C[C@H]1[C@@H]1O[C@@H]12 [scopolamine, Scopolamine hydrobromide]
Monkeys [7]
  cognitive impairment: moderately caused cognitive impairment
Healthy subjects
  alpha power band, resting state: decrease
  delta power band, resting state: increase
Cynomolgus monkeys [5]; scopolamine 25, 50, or 100 μg/kg s.c.
  alpha, theta, and delta power bands, dose-dependency: increased alpha, theta, and delta power bands in a dose-dependent manner
Cynomolgus monkeys [5]; scopolamine 25-100 μg/kg s.c.
  persistence of effects in all power bands after treatment: 240 min

## Nc1c2c(nc3ccccc13)CCCC2 [tacrine]
Freely moving rats
  delta power band after treatment with scopolamine: decreased

## CCCCCCOc1nsnc1C1=CCCN(C)C1 [xanomeline, xanomeline oxalate]
Monkeys [6]; intramuscular administration of 0.1 mg/kg xanomeline
  scopolamine-induced cognitive deficits: improved
Cynomolgus monkeys [4]; [12]
  scopolamine-induced increase in alpha power band: showed a trend to suppress
  scopolamine-induced increase in delta power band: showed a trend to suppress
  scopolamine-induced increase in theta power band: showed a trend to suppress
Monkeys [8]
  antipsychotic-like activity and sedative effects: exhibited antipsychotic-like activity without inducing sedative effects
